Assays:
[1] = excess molar enthalpy (molar enthalpy of mixing); xn = mol fraction of the nth substance listed; details: 298.15 K, 101 kPa, Liquid, Calvet calorimetry
[2] = xn = mol fraction of the nth substance listed; details: 298.15 K, 101 kPa, Liquid, Vibrating tube method

BrCCBr [1,2-dibromoethane] + CCCCOC(=O)CC
[1]
Details | excess molar enthalpy [kJ/mol]
x2 = 0.0417 | 0.022
x2 = 0.0966 | 0.031
x2 = 0.1618 | 0.026
x2 = 0.2302 | 0.008
x2 = 0.2936 | -0.02
x2 = 0.3529 | -0.05
x2 = 0.4091 | -0.075
x2 = 0.4511 | -0.092
x2 = 0.4917 | -0.101
x2 = 0.5694 | -0.111
x2 = 0.6594 | -0.11
x2 = 0.7605 | -0.096
x2 = 0.8773 | -0.063

BrCCCCCCBr [1,6-dibromohexane] + CCCCOC(=O)CC
Details | excess molar enthalpy, [1] [kJ/mol] | mass density, [2] [kg/m3]
x2 = 0.0686 | – | 1552.3
x2 = 0.0731 | 0.028 | –
x2 = 0.1212 | – | 1514.66
x2 = 0.1582 | 0.049 | –
x2 = 0.1829 | – | 1470.4
x2 = 0.2418 | 0.057 | 1427.98
x2 = 0.2995 | – | 1386.24
x2 = 0.3151 | 0.05 | –
x2 = 0.3861 | 0.026 | –
x2 = 0.4152 | – | 1302.26
x2 = 0.4485 | 0.001 | –
x2 = 0.4752 | – | 1258.56
x2 = 0.5064 | -0.028 | –
x2 = 0.5318 | -0.044 | –
x2 = 0.5419 | -0.045 | –
x2 = 0.5954 | – | 1170.51
x2 = 0.596 | -0.06 | –
x2 = 0.6527 | – | 1128.4
x2 = 0.6658 | 0.067 | –
x2 = 0.7123 | – | 1084.48
x2 = 0.7456 | 0.066 | –
x2 = 0.7652 | – | 1045.44
x2 = 0.8249 | – | 1001.25
x2 = 0.834 | 0.053 | –
x2 = 0.8847 | – | 956.84
x2 = 0.9306 | 0.022 | –
x2 = 0.9365 | – | 918.31

BrCCCBr [1,3-dibromopropane] + CCCCOC=O
Details | excess molar enthalpy [kJ/mol] | mass density [kg/m3]
[1], x2 = 0.0631 | 0.065 | –
[1], x2 = 0.1489 | 0.128 | –
[1], x2 = 0.2355 | 0.166 | –
[1], x2 = 0.3208 | 0.182 | –
[1], x2 = 0.3958 | 0.179 | –
[1], x2 = 0.4589 | 0.171 | –
[1], x2 = 0.5144 | 0.158 | –
[1], x2 = 0.5498 | 0.149 | –
[1], x2 = 0.5621 | 0.144 | –
[1], x2 = 0.6372 | 0.121 | –
[1], x2 = 0.7237 | 0.095 | –
[1], x2 = 0.8208 | 0.06 | –
[1], x2 = 0.9151 | 0.029 | –
[2], x2 = 0.055 | – | 1904.29
[2], x2 = 0.1095 | – | 1839
[2], x2 = 0.1626 | – | 1776.37
[2], x2 = 0.2171 | – | 1712.74
[2], x2 = 0.273 | – | 1648.68
[2], x2 = 0.3252 | – | 1589.49
[2], x2 = 0.5003 | – | 1397.08
[2], x2 = 0.5617 | – | 1331.4
[2], x2 = 0.6186 | – | 1271.46
[2], x2 = 0.6866 | – | 1200.91
[2], x2 = 0.8026 | – | 1082.84
[2], x2 = 0.8655 | – | 1020.08
[2], x2 = 0.9344 | – | 952.37

BrCCBr [1,2-dibromoethane] + CCCCOC(C)=O
[1]
Details | excess molar enthalpy [kJ/mol]
x2 = 0.0399 | -0.001
x2 = 0.0964 | -0.003
x2 = 0.1625 | -0.016
x2 = 0.2339 | -0.043
x2 = 0.3039 | -0.073
x2 = 0.3717 | -0.103
x2 = 0.4237 | -0.129
x2 = 0.4749 | -0.147
x2 = 0.5228 | -0.152
x2 = 0.5985 | -0.153
x2 = 0.6854 | -0.139
x2 = 0.7854 | -0.116
x2 = 0.8989 | -0.062

BrCCCCBr [1,4-dibromobutane] + CCCCOC=O
Details | excess molar enthalpy [kJ/mol] | mass density [kg/m3]
[1], x2 = 0.0646 | 0.074 | –
[1], x2 = 0.1478 | 0.132 | –
[1], x2 = 0.2392 | 0.177 | –
[1], x2 = 0.3291 | 0.204 | –
[1], x2 = 0.4058 | 0.211 | –
[1], x2 = 0.4726 | 0.204 | –
[1], x2 = 0.5295 | 0.195 | –
[1], x2 = 0.5817 | 0.182 | –
[1], x2 = 0.6425 | 0.162 | –
[1], x2 = 0.7078 | 0.138 | –
[1], x2 = 0.7787 | 0.106 | –
[1], x2 = 0.8648 | 0.069 | –
[1], x2 = 0.9404 | 0.028 | –
[2], x2 = 0.0702 | – | 1756.08
[2], x2 = 0.1221 | – | 1708.91
[2], x2 = 0.1836 | – | 1652.89
[2], x2 = 0.241 | – | 1600.45
[2], x2 = 0.3018 | – | 1544.61
[2], x2 = 0.4249 | – | 1431.07
[2], x2 = 0.4765 | – | 1383.26
[2], x2 = 0.5374 | – | 1326.55
[2], x2 = 0.6529 | – | 1218.52
[2], x2 = 0.7677 | – | 1110.31
[2], x2 = 0.8248 | – | 1056.19
[2], x2 = 0.8824 | – | 1001.42
[2], x2 = 0.9353 | – | 950.88

Source: the NIST ThermoML archive (doi:10.1016/j.jct.2009.05.006)
